From patent US20160270393A1, “INSECT REPELLENT COMPOSITIONS AND METHODS OF USE” (Wageningen Universiteit, priority 2013, published 2016)
Entries after “also recorded” stand apart in the source; their conditions may differ. Read-outs that look alike come from different tables or passages of the source.

Assays:
[1] = test system: Anopheles gambiae s.s. females; test: Laboratory bioassay of repellent compounds (landings on heated, odour-baited plateau); format: in vivo; settings: for effect on number of landings during eight minutes compared to ethanol control: 1% in ethanol on nylon strip, ten females, n=8, Mann-Whitney U, α=0.0042, listed in order of increasing efficacy; for repellent effect on host-seeking mosquitoes: 1% concentration
Procedure: The bioassay was set up in a room in which air temperature and relative humidity (RH) could easily be controlled. During experiments these parameters were continuously monitored using a Tinyview® data logger with display. Temperature was maintained at 24±1° C. and RH was kept between 60 and 75%.
Because repellents are volatile compounds, the risk of contamination of the setup is always present when testing these substances. Therefore, this bioassay uses replaceable 30×30×30 cm Bugdorm® cages as flight chambers. Although made of polyethylene (PE) and polypropylene (PP) which may potentially pick up the compounds tested, no contamination effects were observed, in contrast to a previously used cage made of metal and polycarbonate (see below).
Mosquitoes were attracted to a heated circular plateau (1) of diameter 15 cm acting as a landing surface, that was positioned underneath the gauze bottom of the Bugdorm® (2). Ten moist filter papers (3) of diameter 8 cm were applied on top of the heating plateau. Metal gauze was placed over the papers on which the strips releasing the odour blend were laid (see below). A transparent plastic cylinder was placed around the plateau to concentrate the warm, humid air within the area above the plateau.
A five-compound odour bait, which simulates the smell of a human foot (Mukabana et al., 2012), provided the necessary attractive background against which repellency could be measured. The individual compounds were released from nylon strips (cut from panty hoses: 90% polyamide, 10% spandex, Marie Claire®) (see Okumu et al. (2010b)). Concentrations were optimized for this release method: ammonia (25%), L-(+)-lactic-acid (88-92%), tetradecanoic acid (16% in ethanol), 3-methyl-1-butanol (0.01% in paraffin oil) and butan-1-amine (0.001% in paraffin oil). Strips measuring 26.5 cm×1 cm were impregnated with the attractive compounds by dipping them into an Eppendorf tube containing 1 ml of solution. Subsequently, they were stored at room temperature for three to five hours. Hereafter the strips were hung for half an hour under a fume hood to allow excess fluids to leak off. Finally they were packed in aluminium foil and stored at 4° C. in a refrigerator until use. Pulses of CO2 were released into the Bugdorm® through a teflon tube (4) that rested on top of the Bugdorm®. Each eight seconds, a two second pulse was released at 2.17 mL/sec (or 130 mL/min).
A glass screen (5, 6) was placed between the Bugdorm® and the place from where a researcher would carry out the behavioural observations. In this way, skin and breath emanations from the researcher were prevented from interfering directly with the mosquitoes inside the flight chamber. In the ceiling of the experimental room a fan created a gentle suction to carry off any volatiles emitted by both the experimental operator and the setup.
Repellence was measured by releasing a number of female Anopheles gambiae s.s. mosquitoes into the cage. The mosquitoes were highly attracted to the warm area on the bottom of the Bugdorm® cage and they would land and probe with their proboscis through the gauze in search of a blood-host.
A potential repellent was released from a nylon strip that was prepared identically to the method used for attractive compounds, with the exception that the strips were not hung up under a fume hood but stored in Eppendorf tubes at 4° C. directly after their preparation. The impregnated nylon strips with the repellents were taken out of their solution just before the start of the experiment and allowed to leak out on a piece of filter paper for 10 s before they were placed in the experimental setup. Strips were laid directly on the gauze bottom of the Bugdorm®, in a circle within the circular area under which the attractant blend was released.
After one minute of acclimatization time, the number of landings within the circular area formed by the treated strip was counted for a period of eight minutes. […]

[2] = test system: An. gambiae s.s., Mbita strain; settings: comparison statement; DEET not tested in this setup; cited from earlier work
[3] = test system: An. gambiae s.s., Mbita strain; test: Semi-field testing in MalariaSphere (push / push-pull, trap catches inside and outside experimental house); format: in vivo, Anopheles gambiae s.s.; set-up: Reduction (mosquitoes trapped indoors vs control): concentration or dose not given beside the values; settings: for Indoors Mean (SEM) no. mosquitoes / Indoors Percentage trapped / Reduction (mosquitoes trapped indoors vs control) / Outdoors Mean (SEM) no. mosquitoes / Outdoors Percentage trapped: n=6; for spatial repellent effect: inventors' observation, repellent traps spaced about 4-5 meters apart
Excerpt: Mosquitoes (An. gambiae s.s., Mbita strain; henceforth termed An. gambiae) were reared under ambient atmospheric conditions in screenhouses (larvae) and holding rooms (adults) at the Thomas Odhiambo Campus (TOC) of the International Centre of Insect Physiology and Ecology (ICIPE) located near Mbita Point township in western Kenya. Mosquito eggs were placed in plastic trays containing filtered water from Lake Victoria. All larval instars were fed on Tetramin® baby fish food which was supplied thrice per day. Pupae were collected daily and placed in mesh-covered cages (30×30×30 cm) prior to adult emergence. Adult mosquitoes were fed on 6% glucose solution through wicks made from adsorbent tissue paper.
Four to six day old female mosquitoes that had no prior access to blood were used for the semi-field experiments. The mosquitoes were collected from the colony at 12:00 h each day and stored for eight hours in the colony room with access to water on cotton wool. Within 15 min. before the start of the experiment the cups with the mosquitoes were transported to the MalariaSphere.
The experiments were conducted in Kenya at the Mbita Point Research & Training Centre of the International Centre of Insect Physiology and Ecology (ICIPE). Experiments took place in the MalariaSphere, a screenhouse into which a traditional house was built surrounded by natural vegetation (see Knols et al. (2002)). […] The MalariaSphere was set up as described by Knols et al. (2002) with as only modification that no breeding sites were present.
In the experiment the effects of attractant-baited traps and the dispersal of repellents around the traditional house were tested. Eight different setups were tested. During all tests, one attractant-baited trap (see below) was placed inside the experimental house to represent a human being. The house entry of the mosquitoes was measured by the number of mosquitoes caught by the trap inside the house.
Each night at 20:00 h, 200 female mosquitoes were released into the MalariaSphere. At 06:30 h the next morning the experiment was terminated by closing and switching off all traps. The traps were then placed in a freezer for several minutes to inactivate the mosquitoes, after which the number of trapped mosquitoes was determined.
The study compared the effect of three different repellents; in push-only situations, as well as in situations in which both the repellent and the attractive elements were present. […] Open circles represent a MMX trap baited with attractant. Filled circles represent a MMX trap dispersing the repellent. The asterisk indicates the mosquito release point. The numbers of the treatments correspond to the following:
Each setup was tested during six different nights, thus a total of 48 tests was carried out, during the same number of nights. The order of the tests was not fully randomized in order to minimize the risk of contamination of the MalariaSphere with the odours used.
Besides PMD, catnip essential oil (e.o.) and delta-undecalactone (dUDL) were used as repellents. Strips were impregnated with 40% solutions (catnip e.o. and dUDL were dissolved in paraffin oil) as described below.
Each night 200 mosquitoes were released from one central point between the entrance of the screenhouse and the experimental hut (see FIG. 3).
Mosquito Magnet® X (MM-X) traps (Kline (1999), Njiru et al (2006)) were baited with CO2 and a five-compound odour blend, which simulates the smell of a human foot (Mukabana et al., 2012). The individual compounds of the attractive blend were released from nylon strips (cut from panty hoses: 90% polyamide, 10% spandex, Marie Claire®) (Okumu et al. (2010b)). Concentrations were optimized for this setup and release method: ammonia (2.5% in water), L-(+)-lactic-acid (88-92%), tetradecanoic acid (0.000032% in ethanol), 3-methyl-1-butanol (0.000001% in water) and butan-1-amine (0.001% in paraffin oil) (see Table 1). […]

[4] = background statement; cited from earlier work
[5] = push only, 40% solution on strip, 200 mosquitoes released per night
[6] = push only, 200 released per night

Row | Compound | effect on number of landings during eight minutes compared to ethanol control [1] | Indoors Mean (SEM) no. mosquitoes [3, 5] | Indoors Percentage trapped [3, 6] [%] | Outdoors Mean (SEM) no. mosquitoes ([3]; push-pull) | Outdoors Percentage trapped ([3]; push-pull) [%] | spatial repellent effect [3] | solubility [4] | repellent effect on host-seeking mosquitoes [1] | further results
1 | CC(=O)CCC=C(C)C [6-methyl-5-hepten-2-one] | significantly reduced the number of landings |  |  |  |  |  |  |  | 
2 | CCN(CC)C(=O)c1cccc(C)c1 [DEET, N,N-diethyl-meta-toluamide] | significantly reduced the number of landings |  |  |  |  |  |  |  | spatial repellent effect [2]: little or no spatial repellent effect; also recorded: no spatial effect on distances from the human skin greater than a few millimeters
3 | CC1CCC(C(C)(C)O)C(O)C1 (stereo not drawn) [PMD, p-Menthane-3,8-diol, reference compound] | significantly reduced the number of landings | 44.5 (5.6) b | 22.3 | 125.0 (13.8) | 62.5 |  |  |  | Reduction (mosquitoes trapped indoors vs control) ([3]; push only): 45.7%; Indoors Mean (SEM) no. mosquitoes ([3]; push-pull (repellent plus attractant-baited traps outside), 200 released per night): 6.8 (1.2) c, d; Indoors Percentage trapped ([3]; push-pull, 200 released per night): 3.4%; Reduction (mosquitoes trapped indoors vs control) ([3]; push-pull): 91.7%
4 | C=CC(C)(O)CCC=C(C)C (stereo not drawn) [linalool] | significantly reduced the number of landings |  |  |  |  |  |  |  | 
5 | CCCCCC1CCCC(=O)O1 (stereo not drawn) [δ-decalactone, 6-pentyloxan-2-one] | significantly reduced the number of landings |  |  |  |  | significant spatial repellent effect; also recorded: significant repellent effect from a distance of at least several decimeters | solubility in alcohols or oils | strong repellent effect | 
6 | CCCCCCC1CCCC(=O)O1 (stereo not drawn) [δ-undecalactone, 6-hexyloxan-2-one] | significantly reduced the number of landings | 15.2 (2.5) c(d) | 7.6 | 122.8 (7.1) | 61.4 | significant spatial repellent effect; also recorded: significant repellent effect from a distance of at least several decimeters | solubility in alcohol | strong repellent effect | Reduction (mosquitoes trapped indoors vs control) ([3]; push only, listed as dUDL): 81.5%; Reduction (mosquitoes trapped indoors vs control) ([3]; push only, listed as delta-undecalactone): 81.5%; Indoors Mean (SEM) no. mosquitoes ([3]; push-pull (repellent plus attractant-baited traps outside), 200 released per night, listed as dUDL): 3.7 (0.7) d; Indoors Mean (SEM) no. mosquitoes ([3]; push-pull (repellent plus attractant-baited traps outside), 200 released per night, listed as delta-undecalactone): 3.7 (0.7); Indoors Percentage trapped ([3]; push-pull, 200 released per night, listed as dUDL): 1.9%; Indoors Percentage trapped ([3]; push-pull, 200 released per night, listed as delta-undecalactone): 1.9%; Reduction (mosquitoes trapped indoors vs control) ([3]; push-pull, listed as dUDL): 95.5%; Reduction (mosquitoes trapped indoors vs control) ([3]; push-pull, listed as delta-undecalactone): 95.5%
